US20020077317A1, “Method of potentating the action of 2-methoxyoestradiol, statins and C-peptide of proinsulin” (priority 2000, published 2002)

Legend:
delta-6-desaturase = delta-6-desaturase (Homo sapiens, UniProt O95864); test: delta-6-desaturase activity; assay type: biochemical
From the text: (§1) Essential fatty acids are precursors of eicosanoids and are important structural components of cell membranes. They also provide the substrates for the generation of lipid peroxidation products which have an inhibitory action on cell proliferation. Tumor cells are known to have low delta-6-desaturase activity, an enzyme necessary for the desaturation of dietary linoleic acid (LA, 18:2, n-6) and alpha-linolenic acid (ALA, 18:3, n-3) to their respective products. […] This selective tumoricidal action of fatty acids seems to be mediated by free radicals and lipid peroxides.

delta-5-desaturase = delta-5-desaturase (Homo sapiens, UniProt O60427); test: delta-5-desaturase activity; assay type: biochemical
Sequence of delta-5-desaturase (O60427 whole entry, species assumed): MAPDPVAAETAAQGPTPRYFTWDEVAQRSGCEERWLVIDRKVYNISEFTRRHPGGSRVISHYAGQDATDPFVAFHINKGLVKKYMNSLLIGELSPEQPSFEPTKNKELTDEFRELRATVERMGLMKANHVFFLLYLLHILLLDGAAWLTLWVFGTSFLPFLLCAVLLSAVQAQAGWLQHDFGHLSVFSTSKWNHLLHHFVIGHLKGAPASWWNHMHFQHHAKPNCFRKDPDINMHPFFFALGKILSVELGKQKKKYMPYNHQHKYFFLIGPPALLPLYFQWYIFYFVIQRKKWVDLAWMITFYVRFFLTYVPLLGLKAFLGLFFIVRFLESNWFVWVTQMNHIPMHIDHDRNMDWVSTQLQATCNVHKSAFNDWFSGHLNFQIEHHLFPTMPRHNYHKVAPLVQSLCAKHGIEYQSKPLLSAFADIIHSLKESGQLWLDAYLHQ
From the text: as §1

[1] = test system: breast cancer cells, MCF-7; settings: cited from earlier work
endothelial cells = settings: read-out: half-maximal inhibitory concentration (IC50); cited from earlier work
[2] = test system: SOD (superoxide dismutase); settings: cited from earlier work
p53 protein = settings: cited from earlier work
[3] = test system: normal human skin fibroblasts; settings: at 100 micro M concentration; cited from earlier work
solid tumors = settings: cited from earlier work
[4] = test system: Chinese Hamster V79 cells; settings: in culture; cited from earlier work
[5] = test system: tumor cells and normal cells; test: PUFAs on tumor cells and normal cells in vitro; assay type: cell-based; settings: for killing of tumor cells versus normal cells: in vitro
From the text: (§2) Tumor cells are not only deficient in PUFAs but also have low rate(s) of lipid peroxidation and low amounts of superoxide dismutase (SOD), and contain relatively large amounts of antioxidants such as vitamin E. It is also believed that low rates of lipid peroxidation and consequent low amounts of lipid peroxides in the cells can contribute to an increase in the mitotic process which ultimately leads to an increase in cell proliferation. Thus, a deficiency of PUFAs, high amounts of antioxidants and the presence of low amounts of lipid peroxides in the tumor cells can contribute to the growth of tumor cells.
as §1

[6] = test system: normal and tumor cells grown together; test: mixed culture of normal and tumor cells; assay type: cell-based
From the text: as §2

skin papilloma = skin papilloma in mice; assay type: in vivo; settings: pure fatty acid or fatty acid rich oils
KB-Ch^R-8-5 = test: vincristine resistant KB-ChR-8-5 tumor cells; assay type: cell-based
ascitic tumor cells = ascitic tumor cells in the peritoneum; assay type: in vivo; settings: experimental animals; pure fatty acid or fatty acid rich oils
tumor cells = test: PUFA potentiation of anti-cancer drugs in tumor cells; assay type: cell-based; settings: for cytotoxic action of doxorubicin, vincristine and cis-platinum: fatty acid added to anti-cancer drug
hepatoma = hepatoma in rats; assay type: in vivo; settings: pure fatty acid or fatty acid rich oils
[7] = test system: TNF resistant L-929 tumor cells; test: TNF resistant L-929 tumor cells in vitro; assay type: cell-based; settings: for killing of TNF resistant L-929 tumor cells: in vitro; for sensitisation of TNF-resistant L-929 cells to TNF: prior treatment with fatty acid
bone marrow cells = test: side effects of anti-cancer agents on mouse bone marrow cells; assay type: in vivo; settings: mice
From the text: […], it is desirable that PUFAs should be delivered to the patients in such a manner that they are easily available to the tumor cells and are delivered selectively to the tumor cells.

endothelial cell = settings: cited from earlier work
[8] = test system: primary and metastatic tumors; settings: experimental animals; cited from earlier work
[9] = test system: subcutaneous hemangioendothelioma; settings: mice with hemangioendothelioma and disseminated intravascular coagulopathy; cited from earlier work
[10] = test system: bovine capillary endothelial cells; settings: in vitro; cited from earlier work
[11] = test system: proliferating endothelial cells; settings: cited from earlier work
[12] = test system: free radical generation and lipid peroxidation; settings: cited from earlier work
[13] = proliferating endothelial cells

Sequence of delta-6-desaturase (O95864 whole entry, species assumed): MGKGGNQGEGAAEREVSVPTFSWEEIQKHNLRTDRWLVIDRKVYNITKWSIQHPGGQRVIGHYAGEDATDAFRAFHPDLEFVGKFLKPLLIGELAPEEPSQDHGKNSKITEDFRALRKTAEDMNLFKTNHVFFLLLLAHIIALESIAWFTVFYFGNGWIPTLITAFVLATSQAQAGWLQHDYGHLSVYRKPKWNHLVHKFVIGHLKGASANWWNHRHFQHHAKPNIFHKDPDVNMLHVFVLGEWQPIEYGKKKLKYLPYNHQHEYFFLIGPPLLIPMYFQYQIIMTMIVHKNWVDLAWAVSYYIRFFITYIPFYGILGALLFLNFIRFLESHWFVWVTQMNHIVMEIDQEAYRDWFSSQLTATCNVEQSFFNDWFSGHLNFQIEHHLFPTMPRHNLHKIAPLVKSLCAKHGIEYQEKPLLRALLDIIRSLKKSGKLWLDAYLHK

CC(=O)Nc1ccc2c(c1)Cc1ccccc1-2 [2-AAF, 2-acetylaminofluorine]
activity of delta-6-desaturase (delta-6-desaturase): can suppress the activity | activity of delta-5-desaturase (delta-5-desaturase): can suppress the activity

COc1cc2c(cc1O)CC[C@@H]1[C@@H]2CC[C@]2(C)[C@@H](O)CC[C@@H]12 [2-ME, 2-methoxyoestradiol]
action on MCF-7 cells [1]: cytotoxic action | IC50 (endothelial cells): 150 nM | binding to SOD [2]: able to bind to SOD | accumulation of p53 protein (p53 protein): induce the accumulation of p53 protein | effect on normal human skin fibroblasts [3]: no effect | general toxicity (solid tumors; in vivo): not associated with general toxicity | capillary formation in and growth of solid tumors (solid tumors; oral administration, mice): inhibit capillary formation in solid tumors and reduce their growth | growth of Chinese Hamster V79 cells [4]: suppres the growth

CCCCC/C=C\C/C=C\C/C=C\C/C=C\CCCC(=O)O [AA, arachidonic acid]
tumor cell proliferation [5]: decrease tumor cell proliferation | killing of tumor cells versus normal cells [5]: only tumor cells are killed | selective tumoricidal action in mixed culture [6]: effective to some extent | growth of skin papilloma (skin papilloma): inhibit the growth | sensitisation of vincristine resistant cells to vincristine (KB-Ch^R-8-5): made sensitive to the cytotoxic action of vincristine | growth of ascitic tumor cells in the peritoneum (ascitic tumor cells): inhibit the growth | cellular uptake of anti-cancer drugs by tumor cells (tumor cells): enhance the cellular uptake | cytotoxic action of doxorubicin, vincristine and cis-platinum (tumor cells): can be augmented | formation and growth of hepatoma (hepatoma): inhibit the growth | killing of TNF resistant L-929 tumor cells [7]: able to kill | sensitisation of TNF-resistant L-929 cells to TNF [7]: rendered TNF sensitive

CC/C=C\C/C=C\C/C=C\CCCCCCCC(=O)O [ALA, alpha-linolenic acid]
killing of tumor cells versus normal cells [5]: only tumor cells are killed

CCN(CC)N=O [DEN, diethylnitrosamine]
activity of delta-6-desaturase (delta-6-desaturase): can suppress the activity | activity of delta-5-desaturase (delta-5-desaturase): can suppress the activity

CCCCC/C=C\C/C=C\C/C=C\CCCCCCC(=O)O [DGLA, dihomo-GLA]
side effects of gamma-radiation and cis-platinum to bone marrow cells (bone marrow cells): prevent or ameliorate the side effects | tumor cell proliferation [5]: decrease tumor cell proliferation | killing of tumor cells versus normal cells [5]: only tumor cells are killed | growth of skin papilloma (skin papilloma): inhibit the growth | sensitisation of vincristine resistant cells to vincristine (KB-Ch^R-8-5): made sensitive to the cytotoxic action of vincristine | growth of ascitic tumor cells in the peritoneum (ascitic tumor cells): inhibit the growth | cellular uptake of anti-cancer drugs by tumor cells (tumor cells): enhance the cellular uptake | cytotoxic action of doxorubicin, vincristine and cis-platinum (tumor cells): can be augmented | formation and growth of hepatoma (hepatoma): inhibit the growth | killing of TNF resistant L-929 tumor cells [7]: able to kill | sensitisation of TNF-resistant L-929 cells to TNF [7]: rendered TNF sensitive

CC/C=C\C/C=C\C/C=C\C/C=C\C/C=C\C/C=C\CCC(=O)O [DHA, docosahexaenoic acid]
cytotoxic action of doxorubicin, vincristine and cis-platinum (tumor cells): can be augmented

CC/C=C\C/C=C\C/C=C\C/C=C\C/C=C\CCCC(=O)O [EPA, eicosapentaenoic acid]
side effects of gamma-radiation and cis-platinum to bone marrow cells (bone marrow cells): prevent or ameliorate the side effects | cytotoxic action of doxorubicin, vincristine and cis-platinum (tumor cells): can be augmented

CCCCC/C=C\C/C=C\C/C=C\CCCCC(=O)O [GLA, gamma-linolenic acid]
side effects of gamma-radiation and cis-platinum to bone marrow cells (bone marrow cells): prevent or ameliorate the side effects | tumor cell proliferation [5]: decrease tumor cell proliferation | killing of tumor cells versus normal cells [5]: only tumor cells are killed | growth of ascitic tumor cells in the peritoneum (ascitic tumor cells): inhibit the growth | cellular uptake of anti-cancer drugs by tumor cells (tumor cells): enhance the cellular uptake | cytotoxic action of doxorubicin, vincristine and cis-platinum (tumor cells): can be augmented | formation and growth of hepatoma (hepatoma): inhibit the growth | killing of TNF resistant L-929 tumor cells [7]: able to kill

CCCCC/C=C\C/C=C\CCCCCCCC(=O)O [LA, linoleic acid]
killing of tumor cells versus normal cells [5]: only tumor cells are killed

CC\C=C/C=C/C=C/C=C\CCCCCCCC(=O)O [cis-parinaric acid]
killing of tumor cells versus normal cells [5]: only tumor cells are killed

Endostatin®
endothelial cell proliferation and angiogenesis (endothelial cell): specifically inhibit endothelial cell proliferation and angiogenesis | primary and metastatic tumors [8]: dramatic reduction of primary and metastatic tumors

angiostatin®
size of the tumor [9]: significant reduction in the size of the tumor | survival [9]: increased survival | proliferation/growth of bovine capillary endothelial cells [10]: inhibit the growth of bovine capillary endothelial cells | cell cycle progression [11]: did not alter cell cycle progression significantly | adhesion activity [11, 13]: enhanced the adhesion activity | change in expression of E-selectin [11, 13]: 4 to 5 fold

superoxide dismutase
free radical generation and lipid peroxidation generated by GLA, EPA and DHA [12]: completely inhibit free radical generation and lipid peroxidation

vitamin E
free radical generation and lipid peroxidation generated by GLA, EPA and DHA [12]: completely inhibit free radical generation and lipid peroxidation
